Test results as given in ChEMBL document CHEMBL3769406, “A phenotypic drug discovery study on thienodiazepine derivatives as inhibitors of T cell proliferation induced by CD28 co-stimulation leads to the discovery of a first bromodomain inhibitor” (Bioorg Med Chem Lett, 2016).
The source made the active and inactive calls. The calls are words filed in the database; no cut-off is given here.

Experiments:
[1] = Immunosuppressive activity in BALB/c mouse splenic T cells assessed as inhibition of PMA/CD28 induced cell proliferation after 24 hrs by [methyl-3H]thymidine incorporation assay; type: functional, cell-based
[2] = target: Bromodomain-containing protein 2 (Homo sapiens) (UniProt P25440); test: (§1) Competitive inhibition of BRD2 in PMA /ionomycin activated human Jurkat cell lysate in presence of (S)-4-{3'-Cyano-4'-[3-(3-{2-[5-((3aR,6S,6aS)-2-oxo-hexahydro-thieno[3,4-d]imidazol-6-yl)-pentanoylamino]-ethyldisulfanyl}-propionylamino)-propoxy]-biphenyl-4-yl}-2,3,9-trimethyl-6H-1-thia-5,7,8,9a-tetraaza-cyclopenta[e]azulene-6-yl]acetic acid ethyl ester/avidin-resin by pull down assay; type: cell-based
[3] = target: T1, Bromodomain-containing protein 4 (Homo sapiens, UniProt O60885); test: as §1, with “BRD4” for “BRD2”; type: cell-based
[4] = target: Bromodomain-containing protein 3 (Homo sapiens) (UniProt Q15059); test: as §1, with “BRD3” for “BRD2”; type: cell-based
[5] = Antitumor activity against human HL60 cells xenografted in nude mouse assessed as inhibition of relative tumor growth at 30 mg/kg, po qd administered for 14 days; type: functional; conditions: HL-60, po, 336 h, read-out: TGI
[6] = Cytotoxicity against human KIM1 cells after 72 hrs by WST-8 assay; type: functional; conditions: KIM1, 72 h
[7] = system: A2780; test: Cytotoxicity against human A2780 cells after 72 hrs by WST-8 assay; type: functional; conditions: A2780, 72 h
[8] = Cytotoxicity against human U87MG cells after 72 hrs by WST-8 assay; type: functional, U-87MG ATCC; conditions: U-87 MG
[9] = system: Mus musculus; test: Immunosuppressive activity in collagen-induced DBA/1J mouse arthritis model at 0.3 to 1 mg/kg, po administered for […] of immunization with bovine type II collagen measured at 21 to 42 days after primary immunization; type: functional, organism-based
[10] = system: LNCaP; test: Cytotoxicity against human LNCAP cells after 72 hrs by WST-8 assay; type: functional
[11] = Antitumor activity against human HL60 cells xenografted in nude mouse assessed as inhibition of relative tumor growth at 10 mg/kg, po qd administered for 14 days; type: functional; conditions: HL-60, po, 336 h, read-out: TGI
[12] = Cytotoxicity against mouse LLC cells after 72 hrs by WST-8 assay; type: functional; conditions: Lewis lung carcinoma
[13] = Cytotoxicity against human EBC1 cells after 72 hrs by WST-8 assay; type: functional; conditions: EBC-1, 72 h
[14] = Antitumor activity against human HL60 cells xenografted in nude mouse assessed as inhibition of relative tumor growth at 10 mg/kg, po bid administered for 14 days; type: functional; conditions: HL-60, po, 336 h, read-out: TGI
[15] = system: Daudi; test: Cytotoxicity against human Daudi cells after 72 hrs by WST-8 assay; type: functional
[16] = system: HeLa; test: Cytotoxicity against human HeLa cells after 72 hrs by WST-8 assay; type: functional
[17] = target: T1, Bromodomain-containing protein 4; test: Inhibition of Flag-tagged BRD4 (unknown origin)-biotinylated AcH4 (Lys5, 8, 12, 16) histone peptide binding expressed in CHO cells after 60 mins by TR-FRET assay; type: cell-based
[18] = Cytotoxicity against human MV411 cells after 72 hrs by WST-8 assay; type: functional; conditions: MV4-11, 72 h
[19] = Cytotoxicity against human HL60 cells after 72 hrs by WST-8 assay; type: functional; conditions: HL-60, 72 h
[20] = Cytotoxicity against human U937 cells after 72 hrs by WST-8 assay; type: functional; conditions: U-937, 72 h
[21] = Cytotoxicity against human RPMI8226 cells after 72 hrs by WST-8 assay; type: functional; conditions: RPMI-8226, 72 h
[22] = system: B16; test: Cytotoxicity against mouse B16 cells after 72 hrs by WST-8 assay; type: functional; conditions: B16, 72 h
[23] = target: Bromodomain-containing protein 3 (Homo sapiens) (UniProt Q15059); test: Inhibition of Flag-tagged BRD3 (unknown origin)-biotinylated AcH4 (Lys5, 8, 12, 16) histone peptide binding expressed in CHO cells after 60 mins by TR-FRET assay; type: cell-based
[24] = Cytotoxicity against human SKOV3 cells after 72 hrs by WST-8 assay; type: functional; conditions: SK-OV-3, 72 h
[25] = Cytotoxicity against mouse M1 cells after 72 hrs by WST-8 assay; type: functional; conditions: M1, 72 h
[26] = Cytotoxicity against human COLO205 cells after 72 hrs by WST-8 assay; type: functional; conditions: COLO 205, 72 h
[27] = system: A549; test: Cytotoxicity against human A549 cells after 72 hrs by WST-8 assay; type: functional; conditions: A549, 72 h
[28] = target: Bromodomain-containing protein 2 (Homo sapiens) (UniProt P25440); test: Inhibition of Flag-tagged BRD2 (unknown origin)-biotinylated AcH4 (Lys5, 8, 12, 16) histone peptide binding expressed in CHO cells after 60 mins by TR-FRET assay; type: cell-based
[29] = Cytotoxicity against human LN18 cells after 72 hrs by WST-8 assay; type: functional; conditions: LN-18, 72 h

Bromodomain-containing protein 2 (Homo sapiens), sequence (P25440 whole entry, looked up): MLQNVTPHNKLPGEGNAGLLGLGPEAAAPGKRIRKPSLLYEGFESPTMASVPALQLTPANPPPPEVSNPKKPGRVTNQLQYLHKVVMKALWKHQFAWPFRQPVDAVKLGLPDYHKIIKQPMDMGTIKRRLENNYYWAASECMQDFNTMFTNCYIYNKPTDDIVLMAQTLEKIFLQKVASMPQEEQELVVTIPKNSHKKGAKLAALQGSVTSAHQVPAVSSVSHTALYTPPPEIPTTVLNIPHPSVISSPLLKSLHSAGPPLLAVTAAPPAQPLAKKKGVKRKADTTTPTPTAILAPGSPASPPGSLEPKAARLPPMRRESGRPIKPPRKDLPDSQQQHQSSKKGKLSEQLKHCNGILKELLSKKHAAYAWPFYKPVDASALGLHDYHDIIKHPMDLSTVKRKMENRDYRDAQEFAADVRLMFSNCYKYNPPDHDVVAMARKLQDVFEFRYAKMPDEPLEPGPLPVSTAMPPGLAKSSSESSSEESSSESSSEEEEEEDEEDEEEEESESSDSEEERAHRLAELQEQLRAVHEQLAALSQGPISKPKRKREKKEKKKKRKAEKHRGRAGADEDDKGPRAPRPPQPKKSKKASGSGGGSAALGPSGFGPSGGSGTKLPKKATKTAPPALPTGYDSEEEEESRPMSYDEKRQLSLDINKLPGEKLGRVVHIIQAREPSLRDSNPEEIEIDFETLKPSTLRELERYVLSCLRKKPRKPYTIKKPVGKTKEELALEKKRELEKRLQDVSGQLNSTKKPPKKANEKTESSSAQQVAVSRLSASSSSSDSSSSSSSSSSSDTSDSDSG
Bromodomain-containing protein 3 (Homo sapiens), sequence (Q15059 2-726 limits assumed): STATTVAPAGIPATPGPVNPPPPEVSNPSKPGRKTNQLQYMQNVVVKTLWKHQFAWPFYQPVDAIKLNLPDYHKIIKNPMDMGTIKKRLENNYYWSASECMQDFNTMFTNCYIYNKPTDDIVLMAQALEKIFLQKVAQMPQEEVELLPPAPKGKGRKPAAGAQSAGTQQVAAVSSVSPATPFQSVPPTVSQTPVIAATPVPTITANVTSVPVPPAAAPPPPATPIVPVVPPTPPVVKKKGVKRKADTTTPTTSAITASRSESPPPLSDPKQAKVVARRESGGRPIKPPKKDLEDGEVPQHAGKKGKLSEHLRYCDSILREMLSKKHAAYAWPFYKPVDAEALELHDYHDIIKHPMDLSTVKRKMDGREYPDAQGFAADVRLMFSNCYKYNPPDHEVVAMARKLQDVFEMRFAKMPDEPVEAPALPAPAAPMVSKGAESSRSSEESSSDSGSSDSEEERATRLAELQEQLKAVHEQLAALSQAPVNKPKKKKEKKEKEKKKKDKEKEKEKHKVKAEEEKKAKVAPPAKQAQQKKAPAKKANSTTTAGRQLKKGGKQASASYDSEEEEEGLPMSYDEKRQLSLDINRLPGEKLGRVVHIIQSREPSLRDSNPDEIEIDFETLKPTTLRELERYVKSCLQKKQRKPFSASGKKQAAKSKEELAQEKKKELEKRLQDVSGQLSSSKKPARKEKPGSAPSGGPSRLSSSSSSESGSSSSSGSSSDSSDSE

SMILES: COC(=O)C[C@@H]1N=C(c2ccc(-c3cccc(NC(C)=O)c3)cc2)c2c(sc(C)c2C)-n2c(C)nnc21
- IC50 [1]: 27 nM

SMILES: Cc1sc2c(c1C)C(c1ccc(Cl)cc1)=NC(C)c1nnc(C)n1-2 (racemic)
- IC50 [1]: 390 nM

SMILES: COC(=O)C[C@@H]1N=C(c2ccc(-c3cccc(S(C)(=O)=O)c3)cc2)c2c(sc(C)c2C)-n2c(C)nnc21
- IC50 [1]: 9.8 nM

SMILES: CCC1N=C(c2ccc(Cl)cc2)c2c(sc(C)c2C)-n2c(C)nnc21 (racemic)
- IC50 [1]: 340 nM

SMILES: Cc1sc2c(c1C)C(c1ccc(Cl)cc1)=NCc1nnc(C)n1-2
- IC50 [1]: 2500 nM

SMILES: COC(=O)C[C@H]1N=C(c2ccc(-c3cccc(C#N)c3)cc2)c2c(sc(C)c2C)-n2c(C)nnc21
- inhibition [2]: inactive
- inhibition [3]: inactive
- inhibition [4]: inactive

SMILES: COC(=O)C[C@@H]1N=C(c2ccc(Cl)cc2)c2c(sc(C)c2C)-n2c(C)nnc21
- IC50 [1]: 38 nM

SMILES: COC(=O)C[C@H]1N=C(c2ccc(Cl)cc2)c2c(sc(C)c2C)-n2c(C)nnc21
- IC50 [1]: > 10000 nM

SMILES: CCCOC(=O)C[C@@H]1N=C(c2ccc(Cl)cc2)c2c(sc(C)c2C)-n2c(C)nnc21
- IC50 [1]: 30 nM

SMILES: Cc1sc2c(c1C)C(c1ccc(Cl)cc1)=NC(CCc1ccccc1)c1nnc(C)n1-2 (racemic)
- IC50 [1]: 2680 nM

SMILES: COCC[C@@H]1N=C(c2ccc(Cl)cc2)c2c(sc(C)c2C)-n2c(C)nnc21
- IC50 [1]: 390 nM

SMILES: Cc1sc2c(c1C)C(c1ccc(Cl)cc1)=N[C@@H](CCO)c1nnc(C)n1-2
- IC50 [1]: 580 nM

SMILES: COC(=O)C[C@@H]1N=C(c2ccc(-c3ccccc3C#N)cc2)c2c(sc(C)c2C)-n2c(C)nnc21
- IC50 [1]: 180 nM

SMILES: Cc1sc2c(c1C)C(c1ccc(Cl)cc1)=N[C@@H](CC(=O)OC(C)C)c1nnc(C)n1-2
- IC50 [1]: 44 nM

SMILES: COC(=O)C[C@@H]1N=C(c2ccc(-c3ccccc3OC)cc2)c2c(sc(C)c2C)-n2c(C)nnc21
- IC50 [1]: 190 nM

SMILES: COC(=O)C[C@@H]1N=C(c2ccc(-c3cccc(C(C)=O)c3)cc2)c2c(sc(C)c2C)-n2c(C)nnc21
- IC50 [1]: 15 nM

SMILES: CCOC(=O)C[C@@H]1N=C(c2ccc(Cl)cc2)c2c(sc(C)c2C)-n2c(C)nnc21
- IC50 [1]: 12 nM

SMILES: Cc1sc2c(c1C)C(c1ccc(Cl)cc1)=NC(Cc1cccnc1)c1nnc(C)n1-2 (racemic)
- IC50 [1]: 400 nM

SMILES: COC(=O)C[C@@H]1N=C(c2ccc(-c3ccc(OC)cc3)cc2)c2c(sc(C)c2C)-n2c(C)nnc21
- IC50 [1]: 53 nM

SMILES: COC(=O)CC1N=C(c2ccc(-c3ccccc3)cc2)c2c(sc(C)c2C)-n2c(C)nnc21 (racemic)
- IC50 [1]: 220 nM

SMILES: Cc1sc2c(c1C)C(c1ccc(Cl)cc1)=NC(Cc1ccccc1)c1nnc(C)n1-2 (racemic)
- IC50 [1]: 500 nM

SMILES: COC(=O)C[C@@H]1N=C(c2ccc(-c3ccc(O)c(C#N)c3)cc2)c2c(sc(C)c2C)-n2c(C)nnc21
- IC50 [1]: 2.5 nM

SMILES: COC(=O)C[C@@H]1N=C(c2ccc(-c3cccc(C#N)c3)cc2)c2c(sc(C)c2C)-n2c(C)nnc21
- inhibition in vivo at 30 mg/kg [5]: 65%
- inhibition [2]: Dose-dependent effect
- GI50 [6]: 104 nM
- inhibition [3]: Dose-dependent effect
- GI50 [7]: 130 nM
- GI50 [8]: > 10000 nM
- Activity [9]: Active
- GI50 [10]: 201 nM
- inhibition in vivo at 10 mg/kg [11]: 43%
- GI50 [12]: 1500 nM
- GI50 [13]: 207 nM
- inhibition in vivo at 10 mg/kg [14]: 80%
- GI50 [15]: 67 nM
- GI50 [16]: 274 nM
- IC50 [17]: 33.9 nM
- GI50 [18]: 19 nM
- IC50 [1]: 26 nM
- GI50 [19]: 7 nM
- GI50 [20]: 829 nM
- GI50 [21]: 69 nM
- GI50 [22]: 80 nM
- inhibition [23]: Active
- GI50 [24]: 5270 nM
- inhibition [4]: Dose-dependent effect
- GI50 [25]: 3 nM
- GI50 [26]: 484 nM
- GI50 [27]: > 10000 nM
- inhibition [28]: Active
- GI50 [29]: 207 nM

SMILES: COC(=O)C[C@@H]1N=C(c2ccc(-c3cccc(OC)c3)cc2)c2c(sc(C)c2C)-n2c(C)nnc21
- IC50 [1]: 36 nM

SMILES: Cc1sc2c(c1C)C(c1ccc(Cl)cc1)=N[C@@H](CC(=O)OC(C)(C)C)c1nnc(C)n1-2
- IC50 [1]: 110 nM

SMILES: Cc1sc2c(c1C)C(c1ccc(Cl)cc1)=NC(Cc1ccncc1)c1nnc(C)n1-2 (racemic)
- IC50 [1]: 240 nM

SMILES: COC(=O)C[C@@H]1N=C(c2ccc(-c3cccc(OC(F)(F)F)c3)cc2)c2c(sc(C)c2C)-n2c(C)nnc21
- IC50 [1]: 160 nM

SMILES: Cc1sc2c(c1C)C(c1ccc(Cl)cc1)=N[C@@H](CCC#N)c1nnc(C)n1-2
- IC50 [1]: 100 nM

SMILES: Cc1sc2c(c1C)C(c1ccc(Cl)cc1)=N[C@@H](CC(=O)OCc1ccccc1)c1nnc(C)n1-2
- IC50 [1]: 36 nM

SMILES: Cc1sc2c(c1C)C(c1ccc(Cl)cc1)=NC(Cc1ccccn1)c1nnc(C)n1-2 (racemic)
- IC50 [1]: 330 nM

SMILES: COC(=O)C[C@@H]1N=C(c2ccc(-c3cccc(O)c3)cc2)c2c(sc(C)c2C)-n2c(C)nnc21
- IC50 [1]: 32 nM

SMILES: COC(=O)C[C@@H]1N=C(c2ccc(-c3ccc(C#N)cc3)cc2)c2c(sc(C)c2C)-n2c(C)nnc21
- IC50 [1]: 33 nM
